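Each compound was tested at five concentrations against cells in 96-well plates for 48 hours. TGI: concentration producing complete growth inhibition.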 *1 amine or outer side, *2 acyl side, *3 side chain or, on linkers, in order; H or OH if unused. Where a SMILES comes first, the peptide text is derived from it. The star is where a group is joined. γGlu = O=C(O)[CH](CCC(=O)[*:2])N[*:1]; Cbz = O=C(OCc1ccccc1)*; NHOH = ON*
Tests used:
Test in all cases: DTP human tumour cell line panel, 48 h
MDA-N = test system: MDA-N
MDA-MB-435 = test system: MDA-MB-435
MOLT-4 leukemia = test system: MOLT-4 leukemia
BT-549 breast = test system: BT-549 breast
SK-OV-3 ovarian = test system: SK-OV-3 ovarian
SK-MEL-28 melanoma = test system: SK-MEL-28 melanoma
M14 melanoma = test system: M14 melanoma
CAKI-1 renal = test system: CAKI-1 renal
HOP-92 NSCLC = test system: HOP-92 NSCLC

CCOC(=O)CCC(NC(=O)C(CC(=O)OC)NC(=O)OCc1ccccc1)C(=O)NC(CC(=O)OC)C(=O)NC(CCC(=O)OCC)C(=O)NC(CC(=O)OC)C(=O)NC(CCC(=O)OCC)C(=O)NC(CC(=O)OCC)C(=O)OCC (stereo not given) (Cbz-D(OMe)E(OEt)D(OMe)E(OEt)D(OMe)E(OEt)D(OEt)-OEt; configuration not given here)
TGI (MDA-N): > 100 µM
TGI (MDA-MB-435): > 100 µM
TGI (MOLT-4 leukemia): > 100 µM
TGI (BT-549 breast): > 100 µM

CC(Nc1cccc(Cl)c1)c1ccncc1 (stereo not given)
TGI (MDA-N): > 100 µM
TGI (MDA-MB-435): > 100 µM
TGI (MOLT-4 leukemia): > 100 µM
TGI (SK-OV-3 ovarian): > 100 µM
TGI (BT-549 breast): > 100 µM
TGI (SK-MEL-28 melanoma): > 100 µM
TGI (M14 melanoma): > 100 µM
TGI (CAKI-1 renal): > 100 µM
TGI (HOP-92 NSCLC): > 100 µM

C[N+](C)(N)Cc1nc(-c2ccc(Cl)cc2)no1
TGI (MDA-N): > 100 µM
TGI (MDA-MB-435): > 100 µM
TGI (MOLT-4 leukemia): > 100 µM
TGI (SK-OV-3 ovarian): > 100 µM
TGI (BT-549 breast): > 100 µM
TGI (SK-MEL-28 melanoma): > 100 µM
TGI (M14 melanoma): > 100 µM
TGI (CAKI-1 renal): > 100 µM
TGI (HOP-92 NSCLC): > 100 µM

COc1ccc(OC)c([N+](=O)[O-])c1-c1nc2sc(Cl)cn2c1/C=N/N=C(N)N
TGI (MDA-MB-435): 46.3 µM
TGI (MOLT-4 leukemia): 23.2 µM
TGI (BT-549 breast): 38.7 µM
TGI (SK-MEL-28 melanoma): 33.4 µM
TGI (M14 melanoma): > 100 µM
TGI (CAKI-1 renal): 38.5 µM
TGI (HOP-92 NSCLC): 31.2 µM

O=C(Nc1ccc(Cl)cc1)c1cc(S(=O)(=O)Nc2nc3ncccc3[nH]2)c(SSc2cc(Cl)c(C(=O)Nc3ccc(Cl)cc3)cc2S(=O)(=O)Nc2nc3ncccc3[nH]2)cc1Cl
TGI (MDA-N): > 100 µM
TGI (MDA-MB-435): > 100 µM
TGI (MOLT-4 leukemia): > 100 µM
TGI (SK-OV-3 ovarian): > 100 µM
TGI (BT-549 breast): > 100 µM
TGI (SK-MEL-28 melanoma): > 100 µM
TGI (M14 melanoma): > 100 µM
TGI (CAKI-1 renal): > 100 µM
TGI (HOP-92 NSCLC): > 100 µM

N#C/C=C(/NC(=O)Nc1ccccc1)N1CCCC1
TGI (MDA-N): > 100 µM
TGI (MDA-MB-435): > 100 µM
TGI (MOLT-4 leukemia): > 100 µM
TGI (SK-OV-3 ovarian): > 100 µM
TGI (BT-549 breast): > 100 µM
TGI (SK-MEL-28 melanoma): > 83.3 µM
TGI (M14 melanoma): > 100 µM
TGI (CAKI-1 renal): > 59.8 µM
TGI (HOP-92 NSCLC): > 62.2 µM

Cc1cc2c3c(c1)S(=O)(=O)c1cc(Cl)ccc1N3CCC2
TGI (MDA-N): > 100 µM
TGI (MDA-MB-435): > 100 µM
TGI (MOLT-4 leukemia): > 100 µM
TGI (SK-OV-3 ovarian): > 100 µM
TGI (BT-549 breast): > 100 µM
TGI (SK-MEL-28 melanoma): > 100 µM
TGI (M14 melanoma): > 100 µM
TGI (CAKI-1 renal): > 100 µM
TGI (HOP-92 NSCLC): > 100 µM

O=[N+]([O-])C(/C(Cl)=C(/Cl)N1CCOCC1)=C1\Nc2ccccc2O1
TGI (MDA-MB-435): > 100 µM
TGI (MOLT-4 leukemia): > 100 µM
TGI (SK-OV-3 ovarian): > 100 µM
TGI (BT-549 breast): > 100 µM
TGI (SK-MEL-28 melanoma): > 100 µM
TGI (M14 melanoma): > 100 µM
TGI (CAKI-1 renal): > 100 µM

CCN(CC)C1=Nc2ccccc2-n2ccnc2C1
TGI (MDA-N): > 100 µM
TGI (MDA-MB-435): > 100 µM
TGI (MOLT-4 leukemia): > 100 µM
TGI (BT-549 breast): > 100 µM
TGI (SK-MEL-28 melanoma): > 100 µM
TGI (M14 melanoma): > 100 µM
TGI (CAKI-1 renal): > 100 µM
TGI (HOP-92 NSCLC): > 100 µM

CN1CCN(c2n[nH]c(=O)c3c2nnn3Cc2ccccc2)CC1
TGI (MDA-N): 40.1 µM
TGI (MDA-MB-435): > 100 µM
TGI (MOLT-4 leukemia): > 100 µM
TGI (BT-549 breast): > 100 µM
TGI (SK-MEL-28 melanoma): > 100 µM
TGI (M14 melanoma): > 100 µM
TGI (CAKI-1 renal): > 100 µM
TGI (HOP-92 NSCLC): > 100 µM

CC(=O)Oc1ccc2c(c1)O/C(=C\c1ccc(N(C)C)cc1)C2=O
TGI (MDA-N): > 100 µM
TGI (MDA-MB-435): > 100 µM
TGI (MOLT-4 leukemia): > 100 µM
TGI (SK-OV-3 ovarian): > 100 µM
TGI (BT-549 breast): > 100 µM
TGI (SK-MEL-28 melanoma): > 100 µM
TGI (M14 melanoma): > 100 µM
TGI (CAKI-1 renal): > 100 µM

NC(CCC(=O)NC(CCC(=O)NO)C(=O)NCC(=O)O)C(=O)O (stereo not given) (γGlu-Glu(NHOH)-Gly-OH; configuration not given here)
TGI (MDA-N): > 100 µM
TGI (MDA-MB-435): > 100 µM
TGI (MOLT-4 leukemia): > 100 µM
TGI (SK-OV-3 ovarian): > 100 µM
TGI (BT-549 breast): > 100 µM
TGI (SK-MEL-28 melanoma): > 100 µM
TGI (M14 melanoma): > 100 µM
TGI (CAKI-1 renal): > 100 µM
TGI (HOP-92 NSCLC): > 100 µM

CCCCCCc1cc2cc(C(=O)Nc3nc(C45CC6CC(CC(C6)C4)C5)cs3)c(=O)oc2cc1O
TGI (MDA-N): 40.2 µM
TGI (MDA-MB-435): 31.4 µM
TGI (MOLT-4 leukemia): 49.5 µM
TGI (SK-OV-3 ovarian): 49 µM
TGI (BT-549 breast): 61 µM
TGI (SK-MEL-28 melanoma): > 100 µM
TGI (CAKI-1 renal): 30.1 µM
TGI (HOP-92 NSCLC): 24.4 µM

Cc1cccc(-c2cc(=O)c3cccnc3[nH]2)c1
TGI (MDA-MB-435): 0.191 µM
TGI (MOLT-4 leukemia): > 100 µM
TGI (SK-OV-3 ovarian): > 100 µM
TGI (BT-549 breast): > 100 µM
TGI (SK-MEL-28 melanoma): > 100 µM
TGI (M14 melanoma): > 100 µM
TGI (HOP-92 NSCLC): > 100 µM

CCOC(=O)c1ccc(-c2onc(C)c2Br)[nH]1
TGI (MDA-N): > 100 µM
TGI (MDA-MB-435): > 100 µM
TGI (MOLT-4 leukemia): > 100 µM
TGI (SK-OV-3 ovarian): > 100 µM
TGI (BT-549 breast): > 100 µM
TGI (SK-MEL-28 melanoma): > 100 µM
TGI (M14 melanoma): > 100 µM
TGI (CAKI-1 renal): > 100 µM
TGI (HOP-92 NSCLC): 92 µM

CSC(=Nc1ccccc1)c1c(C)[nH]n(-c2ccccc2)c1=O
TGI (MDA-N): > 100 µM
TGI (MDA-MB-435): > 100 µM
TGI (MOLT-4 leukemia): > 100 µM
TGI (SK-OV-3 ovarian): > 100 µM
TGI (BT-549 breast): > 100 µM
TGI (SK-MEL-28 melanoma): > 100 µM
TGI (M14 melanoma): > 100 µM
TGI (CAKI-1 renal): > 100 µM

COc1cc(OC)c(-n2[nH]c(=O)n(C)c2=O)c(OC)c1
TGI (MDA-N): > 100 µM
TGI (MDA-MB-435): > 100 µM
TGI (MOLT-4 leukemia): > 100 µM
TGI (SK-OV-3 ovarian): > 100 µM
TGI (BT-549 breast): > 100 µM
TGI (SK-MEL-28 melanoma): > 100 µM
TGI (M14 melanoma): > 100 µM
TGI (CAKI-1 renal): > 100 µM

Fc1ccc(/C=C2\COCC3=C2NC(=S)NC3c2ccc(F)cc2)cc1 (stereo not given)
TGI (MDA-N): 34.2 µM
TGI (MDA-MB-435): 33.3 µM
TGI (MOLT-4 leukemia): 54 µM
TGI (SK-OV-3 ovarian): 79.8 µM
TGI (BT-549 breast): 53.5 µM
TGI (M14 melanoma): 30.1 µM
TGI (CAKI-1 renal): 76.2 µM
TGI (HOP-92 NSCLC): 34 µM

CCCSc1ccc2[nH]c(N3C(=O)/C(=C/c4ccc(O)c(OC)c4)N=C3c3ccccc3)cc2c1
TGI (MDA-N): 5.26 µM
TGI (MDA-MB-435): > 100 µM
TGI (MOLT-4 leukemia): 20.8 µM
TGI (SK-OV-3 ovarian): 76.3 µM
TGI (BT-549 breast): 46.4 µM
TGI (SK-MEL-28 melanoma): > 100 µM
TGI (M14 melanoma): 35.2 µM
TGI (CAKI-1 renal): > 100 µM
TGI (HOP-92 NSCLC): > 100 µM

O=c1[nH]c2c(C(F)(F)F)c(Cl)c(-c3ccccc3)nc2o1
TGI (MDA-N): 44.8 µM
TGI (MDA-MB-435): > 100 µM
TGI (MOLT-4 leukemia): 32.5 µM
TGI (SK-OV-3 ovarian): 64.7 µM
TGI (BT-549 breast): 60.3 µM
TGI (SK-MEL-28 melanoma): > 100 µM
TGI (M14 melanoma): > 100 µM
TGI (CAKI-1 renal): > 100 µM
TGI (HOP-92 NSCLC): 75.7 µM

CCOC(=O)N1CCC2(CC1)C[C@](Sc1ccccc1)(C(C)=O)[C@H](C)O2
TGI (MDA-N): > 100 µM
TGI (MDA-MB-435): > 100 µM
TGI (MOLT-4 leukemia): > 100 µM
TGI (SK-OV-3 ovarian): > 100 µM
TGI (SK-MEL-28 melanoma): > 100 µM
TGI (M14 melanoma): > 100 µM
TGI (CAKI-1 renal): > 100 µM
TGI (HOP-92 NSCLC): > 100 µM

O=C1O/C(=C(\Br)c2ccc([N+](=O)[O-])cc2)c2ccccc21
TGI (MDA-N): > 100 µM
TGI (MDA-MB-435): > 100 µM
TGI (MOLT-4 leukemia): > 69.1 µM
TGI (SK-OV-3 ovarian): > 100 µM
TGI (BT-549 breast): > 100 µM
TGI (SK-MEL-28 melanoma): > 100 µM
TGI (M14 melanoma): > 100 µM
TGI (CAKI-1 renal): > 100 µM
TGI (HOP-92 NSCLC): > 100 µM

COC(=O)c1sc2nc(Nc3ccccc3)c(=Nc3ccccc3)sc2c1C
TGI (MDA-N): > 100 µM
TGI (MDA-MB-435): > 100 µM
TGI (MOLT-4 leukemia): > 100 µM
TGI (SK-OV-3 ovarian): > 100 µM
TGI (SK-MEL-28 melanoma): > 100 µM
TGI (CAKI-1 renal): > 100 µM
TGI (HOP-92 NSCLC): 92 µM

O=C1CC(Nc2ccccc2)c2c(Cl)sc(Cl)c21 (stereo not given)
TGI (MDA-N): 3.33 µM
TGI (MDA-MB-435): 3.17 µM
TGI (MOLT-4 leukemia): 5.18 µM
TGI (SK-OV-3 ovarian): 26.3 µM
TGI (BT-549 breast): 4.36 µM
TGI (SK-MEL-28 melanoma): 3.54 µM
TGI (M14 melanoma): 3.4 µM
TGI (CAKI-1 renal): 1.36 µM
TGI (HOP-92 NSCLC): 3.13 µM
